The target in assay [1] is T1, human GST-DYRK1A (full length) (Homo sapiens, UniProt Q13627).
T1 construct: purified human GST-DYRK1A (full length, Thermo scientifics) enzyme; GST; purchased Thermo scientifics
Briefly: GST-DYRK1A enzyme inhibition, ADP-Glo kinase assay. In kind it is biochemical. To be noted: read-out: DYRK1 IC50. An outline of the steps:
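Full-length human GST-DYRK1A (10 ng) incubated with 10 uM ATP and specific substrate for 1 h at 25° C in 40 mM Tris-HCl pH 7.4, 20 mM MgCl2, 0.5 mg/mL BSA, 50 uM DTT. ADP formation read by ADP-Glo luminescence; IC50 (nM) versus solvent control, triplicate.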
(ADP-Glo first removes unused ATP, then detects ADP through luciferase.)

Assay [2] addresses LRRK2 (Homo sapiens, UniProt Q5S007). Briefly: LRRK2 enzyme inhibition, ADP-Glo kinase assay. In kind it is biochemical. Further details: purchased Invitrogen PR8604B. In short, it runs like this:
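Purified human LRRK2 (25 ng) in 40 mM Tris-HCl pH7.4, 20 mM MgCl2, 0.5 mg/ml BSA, 50 μM DTT with 10 μM ATP and substrate ([…]), 2 h at 25° C. Final compound 50 to 0.000001024 μM, 12-point dilution. ADP-Glo luminescence vs solvent control; IC50 (nM).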

Assay [3] concerns the target T2, human GST-CLK1 (129-end) (Homo sapiens, UniProt P49759).
T2 construct: purified human GST-CLK1 (129-end, Signalchem) enzyme; GST; purchased Signalchem
Briefly: GST-CLK1 enzyme inhibition, ADP-Glo kinase assay. In kind it is biochemical. Particulars: ATP 10 uM. An outline of the steps: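 GST-CLK1 (129-end, 3 ng) reacted with 10 uM ATP and substrate in 40 mM Tris-HCl pH 7.4, 20 mM MgCl2, 0.5 mg/mL BSA, 50 uM DTT, 1 h at 25° C. ADP-Glo luminescence normalised to solvent control; IC50 from triplicate data.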

In assay [4] the test system is human DYRK1A and Tau. Put plainly: Tau phosphorylation inhibition, ClariCELL Kinase Cell-Based Assay (Carnabio). The protocol: Tau phosphorylation inhibitory efficacy was measured using the ClariCELL™ Kinase Cell-Based Assay service of Carnabio, located in the United States. The compounds are exposed to human embryonic kidney ([…]) cells transiently expressing human DYRK1A and Tau, and then the cells are lysed to release cellular proteins. At this time, the released Tau is captured on a plate, and the degree of phosphorylation is quantified by ELISA using an antibody specific for Tau phosphorylation.

The subject of assay [5] is SHP-77. Put plainly: SHP-77 cancer cell proliferation inhibition (Cell Titer-Glo). In kind it is cell-based. Particulars: Homo sapiens, SHP77, SHP-77 small cell lung cancer cell line, 72 hours. In short, it runs like this: (§1)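 GI50 comes from CellTiter-Glo luminescence, read 10 min after reagent addition at RT, following 72 h compound treatment. Eleven concentrations were used (⅓ steps, highest 10 μM final) on 2000 cells/well. MDA-MB-231 and MDA-MB-468 were grown in DMEM, SHP-77 in RPMI.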

For assay [6], the system named is MDA-MB-231 cell line. Briefly: MDA-MB-231 cancer cell proliferation inhibition (Cell Titer-Glo). In kind it is cell-based. Particulars: Homo sapiens, MDA-MB-231 triple-negative breast cancer cell line, 72 hours. In short, it runs like this:
as §1

The target of assay [7] is LRRK2 (G2019S) (Homo sapiens, UniProt Q5S007, G2019S). Briefly: LRRK2 G2019S enzyme inhibition, ADP-Glo kinase assay. In kind it is biochemical. On the set-up: purchased SignalChem L10-12GG. An outline of the steps: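 Purified human LRRK2 G2019S (16 ng) with 25 μM ATP and 0.2 μg substrate, 2 h at 25° C in 40 mM Tris-HCl pH 7.4, 20 mM MgCl2, 0.5 mg/ml BSA, 50 μM DTT; compound at 12 final concentrations from 50 μM downward. ADP-Glo luminescence versus solvent control gave IC50 (nM).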
Chain of LRRK2 (G2019S) (Q5S007 970-2527 G2019S limits assumed): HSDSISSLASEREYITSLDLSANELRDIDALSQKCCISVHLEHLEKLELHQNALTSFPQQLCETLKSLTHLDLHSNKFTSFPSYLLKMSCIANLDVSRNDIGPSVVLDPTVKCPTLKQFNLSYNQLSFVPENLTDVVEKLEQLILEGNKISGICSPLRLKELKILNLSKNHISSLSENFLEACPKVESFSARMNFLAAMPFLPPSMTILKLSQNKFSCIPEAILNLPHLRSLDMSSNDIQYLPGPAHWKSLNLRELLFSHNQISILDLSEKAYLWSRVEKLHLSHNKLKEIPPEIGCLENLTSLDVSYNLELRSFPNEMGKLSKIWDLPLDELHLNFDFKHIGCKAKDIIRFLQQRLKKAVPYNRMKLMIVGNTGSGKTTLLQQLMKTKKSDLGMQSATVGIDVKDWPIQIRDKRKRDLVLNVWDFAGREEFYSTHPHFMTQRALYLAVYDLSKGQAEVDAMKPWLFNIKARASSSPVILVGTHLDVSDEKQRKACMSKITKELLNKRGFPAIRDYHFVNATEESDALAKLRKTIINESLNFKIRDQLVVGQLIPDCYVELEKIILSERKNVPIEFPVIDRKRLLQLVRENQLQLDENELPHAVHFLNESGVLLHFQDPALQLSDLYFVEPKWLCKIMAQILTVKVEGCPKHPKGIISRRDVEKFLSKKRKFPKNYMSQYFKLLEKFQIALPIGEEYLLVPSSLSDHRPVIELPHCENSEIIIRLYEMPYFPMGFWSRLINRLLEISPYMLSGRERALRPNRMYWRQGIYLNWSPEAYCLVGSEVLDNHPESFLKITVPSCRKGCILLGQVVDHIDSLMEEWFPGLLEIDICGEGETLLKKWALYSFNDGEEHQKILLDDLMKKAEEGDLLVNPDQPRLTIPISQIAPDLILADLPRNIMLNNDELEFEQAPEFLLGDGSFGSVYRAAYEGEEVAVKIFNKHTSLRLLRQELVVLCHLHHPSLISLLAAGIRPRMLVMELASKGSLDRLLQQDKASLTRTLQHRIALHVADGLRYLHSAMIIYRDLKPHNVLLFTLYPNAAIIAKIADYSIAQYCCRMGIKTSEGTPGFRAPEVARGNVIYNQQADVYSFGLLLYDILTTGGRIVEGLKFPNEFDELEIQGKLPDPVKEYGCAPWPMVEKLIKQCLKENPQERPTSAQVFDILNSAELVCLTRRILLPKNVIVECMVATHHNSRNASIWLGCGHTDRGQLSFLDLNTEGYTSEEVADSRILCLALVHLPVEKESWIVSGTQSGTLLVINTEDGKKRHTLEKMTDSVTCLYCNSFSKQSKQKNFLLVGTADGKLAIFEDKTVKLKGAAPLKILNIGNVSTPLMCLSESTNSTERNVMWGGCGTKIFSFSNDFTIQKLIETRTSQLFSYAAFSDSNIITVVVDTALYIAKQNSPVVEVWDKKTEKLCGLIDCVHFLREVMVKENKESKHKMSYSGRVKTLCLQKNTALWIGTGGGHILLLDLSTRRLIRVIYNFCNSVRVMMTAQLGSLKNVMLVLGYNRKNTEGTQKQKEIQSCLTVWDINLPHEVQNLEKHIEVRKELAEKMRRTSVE

One may read the IC50 as the concentration that inhibits the measured activity by half. Broadly, the inhibition is the percentage by which the read-out fell short of the control. The term GI50 denotes the concentration at which growth is held to half of that of the control. The low end stands for more potent growth inhibition, the high end for less potent growth inhibition.

SMILES strings stand for the structures.

T2 sequence (P49759 129-484 limits assumed): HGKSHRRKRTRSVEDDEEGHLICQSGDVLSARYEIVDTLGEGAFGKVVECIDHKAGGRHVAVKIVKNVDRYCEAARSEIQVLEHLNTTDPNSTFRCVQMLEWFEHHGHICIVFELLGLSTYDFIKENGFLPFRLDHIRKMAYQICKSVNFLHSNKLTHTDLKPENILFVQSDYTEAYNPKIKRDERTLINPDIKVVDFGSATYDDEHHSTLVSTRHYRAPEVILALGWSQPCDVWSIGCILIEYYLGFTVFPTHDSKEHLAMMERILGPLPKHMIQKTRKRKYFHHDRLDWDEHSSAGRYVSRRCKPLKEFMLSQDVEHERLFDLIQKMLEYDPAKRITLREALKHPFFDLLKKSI
Chain of LRRK2 (Q5S007 970-2527 limits assumed): as the sequence (Q5S007 970-2527 G2019S limits assumed) above, with S1050G counted along it

Take `CCCNc1cc(Nc2ccc(S(=O)(=O)N3CCC(N4CCOCC4)CC3)cc2OC)nc2[nH]cc(C(F)(F)F)c12` [Example 40, N^6-(2-methoxy-4-((4-morpholinopiperidin-1-yl)sulfonyl)phenyl)-N^4-propyl-3-(trifluoromethyl)-1H-pyrrolo[2,3-b]pyridine-4,6-diamine]: the values for the IC50 in assay [1], in assay [2] and in assay [3] were less than 100 nM, 301 to 1000 nM and 301 to 1000 nM, respectively. Besides, 0.25 µM produced 9.2% inhibition in assay [4]. This compound gave an inhibition at 0.5 µM in assay [4] of 15.2%. In addition, the inhibition at 1 µM in assay [4] is 38.7%. For the same compound, the GI50 in assay [5] and in assay [6] was 301 to 1000 nM throughout.
In the case of `CCNc1cc(Nc2ccc(S(=O)(=O)N3CCOCC3)cc2OC)nc2[nH]cc(C(F)(F)F)c12` [Example 179, N^4-ethyl-N^6-(2-methoxy-4-(morpholinosulfonyl)phenyl)-3-(trifluoromethyl)-1H-pyrrolo[2,3-b]pyridine-4,6-diamine], the IC50 in assay [1], in assay [2], in assay [3] and in assay [7] was 301 to 1000 nM each time. Besides, the GI50 in assay [5] and in assay [6] was 301 to 1000 nM in each case.
Turning to `COc1cc(S(=O)(=O)N2CCOCC2)ccc1Nc1cc(NC2CCCCC2)c2c(C(F)(F)F)c[nH]c2n1` [Example 181, N^4-cyclohexyl-N^6-(2-methoxy-4-(morpholinosulfonyl)phenyl)-3-(trifluoromethyl)-1H-pyrrolo[2,3-b]pyridine-4,6-diamine], the IC50 in assay [1], in assay [2], in assay [3] and in assay [7] was 301 to 1000 nM in each case. In addition, the GI50 in assay [5] and in assay [6] was 301 to 1000 nM in each case.
With `CCNc1cc(Nc2ccc(S(=O)(=O)N3CCC(N4CCOCC4)CC3)cc2OC)nc2[nH]cc(C(F)(F)F)c12` [Example 185, N^4-ethyl-N^6-(2-methoxy-4-((4-morpholinopiperidin-1-yl)sulfonyl)phenyl)-3-(trifluoromethyl)-1H-pyrrolo[2,3-b]pyridine-4,6-diamine], the IC50 is 101 to 300 nM in assay [1], less than 100 nM in assay [2], 101 to 300 nM in assay [3] and less than 100 nM in assay [7]. Further, the inhibition at 0.25 µM in assay [4] was 22.9%. The compound also gave an inhibition at 0.5 µM in assay [4] of 37.7%. Also, in assay [4], the inhibition at 1 µM was 56.2%. Moreover, the GI50 was less than 50 nM in assay [5] and 51 to 100 nM in assay [6].
Take `COc1cc(S(=O)(=O)N2CCOCC2)ccc1Nc1cc(NC2CC2)c2c(C(F)(F)F)c[nH]c2n1` [Example 186, N^4-cyclopropyl-N^6-(2-methoxy-4-(morpholinosulfonyl)phenyl)-3-(trifluoromethyl)-1H-pyrrolo[2,3-b]pyridine-4,6-diamine]: the IC50 in assay [1], in assay [2], in assay [3] and in assay [7] was 301 to 1000 nM throughout. The GI50 in assay [5] and in assay [6] was 301 to 1000 nM throughout.
As to `COc1cc(S(=O)(=O)N2CCC(N3CCOCC3)CC2)ccc1Nc1cc(NC2CC2)c2c(C(F)(F)F)c[nH]c2n1` [Example 188, N^4-cyclopropyl-N^6-(2-methoxy-4-((4-morpholinopiperidin-1-yl)sulfonyl)phenyl)-3-(trifluoromethyl)-1H-pyrrolo[2,3-b]pyridine-4,6-diamine 2,2,2-trifluoroacetate], the IC50 in assay [1] is 301 to 1000 nM; in assay [2], less than 100 nM; in assay [3], 301 to 1000 nM; in assay [7], 101 to 300 nM. Also, the GI50 in assay [5] fell in the range of 101 to 300 nM; in assay [6] it was 301 to 1000 nM.
With `COc1cc(S(=O)(=O)N2CCOCC2)ccc1Nc1cc(NCC(C)C)c2c(C(F)(F)F)c[nH]c2n1` [Example 189, N^4-isobutyl-N^6-(2-methoxy-4-(morpholinosulfonyl)phenyl)-3-(trifluoromethyl)-1H-pyrrolo[2,3-b]pyridine-4,6-diamine], the IC50 in assay [1], in assay [2], in assay [3] and in assay [7] was 301 to 1000 nM throughout. Also, the GI50 in assay [5] and in assay [6] was 301 to 1000 nM throughout.
For `COc1cc(S(=O)(=O)N2CCC(N3CCOCC3)CC2)ccc1Nc1cc(NCC(C)C)c2c(C(F)(F)F)c[nH]c2n1` [Example 191, N^4-isobutyl-N^6-(2-methoxy-4-((4-morpholinopiperidin-1-yl)sulfonyl)phenyl)-3-(trifluoromethyl)-1H-pyrrolo[2,3-b]pyridine-4,6-diamine], the IC50 in assay [1] lay in the range of 301 to 1000 nM; in assay [2], 101 to 300 nM; in assay [3], 301 to 1000 nM; in assay [7], 301 to 1000 nM. For the same compound, the GI50 in assay [5] and in assay [6] was 301 to 1000 nM in each case.
For the compound `COc1cc(S(=O)(=O)N2CCOCC2)ccc1Nc1cc(NCCS(C)(=O)=O)c2c(C(F)(F)F)c[nH]c2n1` [Example 192, N^6-(2-methoxy-4-(morpholinosulfonyl)phenyl)-N^4-(2-(methylsulfonyl)ethyl)-3-(trifluoromethyl)-1H-pyrrolo[2,3-b]pyridine-4,6-diamine], the IC50 is less than 100 nM in assay [1], 101 to 300 nM in assay [2], 301 to 1000 nM in assay [3] and 301 to 1000 nM in assay [7]. Besides, the GI50 in assay [5] and in assay [6] was 301 to 1000 nM in each case.
As for `COCCNc1cc(Nc2ccc(S(=O)(=O)N3CCOCC3)cc2OC)nc2[nH]cc(C(F)(F)F)c12` [Example 195, N^6-(2-methoxy-4-(morpholinosulfonyl)phenyl)-N^4-(2-methoxyethyl)-3-(trifluoromethyl)-1H-pyrrolo[2,3-b]pyridine-4,6-diamine], the IC50 in assay [1], in assay [2], in assay [3] and in assay [7] was 301 to 1000 nM each time. The concentration for 50% growth inhibition (GI50) in assay [5] was 101 to 300 nM; in assay [6] it was 301 to 1000 nM.
Take `COCCNc1cc(Nc2ccc(S(=O)(=O)N3CCC(N4CCOCC4)CC3)cc2OC)nc2[nH]cc(C(F)(F)F)c12` [Example 197, N^6-(2-methoxy-4-((4-morpholinopiperidin-1-yl)sulfonyl)phenyl)-N^4-(2-methoxyethyl)-3-(trifluoromethyl)-1H-pyrrolo[2,3-b]pyridine-4,6-diamine]: the IC50 in assay [1] was 101 to 300 nM; in assay [2], less than 100 nM; in assay [3], less than 100 nM; in assay [7], less than 100 nM. Besides, the GI50 in assay [5] lay in the range of 101 to 300 nM; in assay [6] it was 301 to 1000 nM.
For `CCCNc1cc(Nc2ccc(S(=O)(=O)N3CCOCC3)cc2OC)nc2[nH]cc(C(F)(F)F)c12` [Example 199, N^6-(2-methoxy-4-(morpholinosulfonyl)phenyl)-N^4-propyl-3-(trifluoromethyl)-1H-pyrrolo[2,3-b]pyridine-4,6-diamine], the IC50 in assay [1], in assay [2], in assay [3] and in assay [7] was 301 to 1000 nM throughout. Besides, the GI50 in assay [5] and in assay [6] was 301 to 1000 nM each time.

These data come from patent publication US12240844B2 (Voronoi, Inc., priority 2019, dated 2025).
